Assay results published in patent US20050137221A1, “Novel azasugar derivative and drug containing the same as the active ingredient” (priority 2002, published 2005).

Test system: not listed separately
Assay: Inhibition of TPA-stimulated release of HB-EGF-AP fusion protein from HT-1080 transfectant
Assay type: cell-based
Conditions: Homo sapiens, 1 h, 60 nM TPA for 60 min, AP activity of culture supernatant at 405 nm
Experimental: Human fibrosarcoma HT-1080 transfectant expressing fusion protein of HB-EGF and human placental alkaline phosphatase (AP) were used for following tests.
The cultured transfectant was treated with Trypsin-EDTA solution, and suspended in Minimum Essential Medium without phenol red; supplemented with 10% FCS(hereinafter referred to as MEM) at the concentration of 1.0×10^5 cells/ml. Each 0.2 ml of the cell suspension was dispensed into individual wells of 96 well microplate, and incubated overnight in a CO2 incubator at 37° C. After the incubation, the culture supernatant was removed by suction and the wells were washed with 0.2 ml/well of phosphate buffered saline. The cells were pretreated with 0.1 ml/well of the test compound solution [dimethyl sulfoxide (hereinafter referred to as DMSO) solution was diluted to 100 times with MEM] for 30 min in a CO2 incubator at 37° C. Then the culture supernatant was removed by suction and cells were treated with 0.2 ml/well of TPA solution (120 μM of DMSO solution was diluted to 60 nM with MEM) containing the same concentration of the compound as pretreatment for 60 min in a CO2 incubator at 37° C. The cells pretreated with MEM and incubated with only the TPA solution containing no test compound were used as control.
After these treatments, each 0.1 ml of culture supernatant collected from each well and 0.1 ml of MEM as background were transferred to individual wells of new 96 well microplate and incubated at 65° C. for 10 min after plate sealing to inactivate endogenous AP in MEM and cells. 0.1 ml of the substrate solution (prepared by diluting an aqueous 100 mg/ml p-nitrophenyl phosphate solution prepared previously 100 times with 0.01% magnesium chloride/1 M diethanolamine before use) for AP was added to each well and incubated for 120 minutes at room temperature in the dark. The absorbance at a wavelength of 405 nm of each well was measured using a microplate reader.

Row | IC50 [nM] | SMILES
1 | 610 | COc1ccc(S(=O)(=O)N2C[C@H](O)[C@@H](O)[C@H](O)[C@@H]2C(=O)NO)cc1 [Compound a, (2R,3R,4R,5S)-3,4,5-trihydroxy-1-(4′-methoxybenzenesulfonyl)-piperidine-2-carboxylic acid hydroxamide]
2 | 450 | CCOCCOc1ccc(S(=O)(=O)N2C[C@H](O)[C@@H](O)[C@H](O)[C@@H]2C(=O)NO)cc1 [Compound b, (2R,3R,4R,5S)-1-(4′-ethoxyethoxy-benzenesulfonyl)-3,4,5-trihydroxy-piperidine-2-carboxylic acid hydroxamide]
3 | 350 | O=C(NO)[C@H]1[C@@H](O)[C@H](O)[C@@H](O)CN1S(=O)(=O)c1ccc(Oc2ccccc2)cc1 [Compound c, (2R,3R,4R,5S)-3,4,5-trihydroxy-1-(4′-phenoxybenzenesulfonyl)-piperidine-2-carboxylic acid hydroxamide]
4 | 1600 | COc1ccc(S(=O)(=O)N2C[C@H](O)[C@@H](O)[C@@H](O)[C@@H]2C(=O)NO)cc1 [Compound d, (2R,3S,4R,5S)-3,4,5-trihydroxy-1-(4′-methoxybenzenesulfonyl)-piperidine-2-carboxylic acid hydroxamide]
5 | 340 | O=C(NO)[C@H]1[C@@H](O)[C@H](O)[C@H](O)CN1S(=O)(=O)c1ccc(Oc2ccccc2)cc1 [Compound e, (2R,3R,4R,5R)-3,4,5-trihydroxy-1-(4′-phenoxybenzenesulfonyl)-piperidine-2-carboxylic acid hydroxamide]

Test system: epidermal hyperplasia in male BALB/c mice
Assay: TPA-induced epidermal hyperplasia on mouse dorsal skin (epidermal thickness)
Assay type: in vivo
Conditions: topical application in acetone 5 minutes, 24 hours and 48 hours after TPA; skin excised at 72 hours; FIG. 1
Experimental: After backs of male BALB/c mice were shaved, 10 μL of a TPA-acetone solution (0.1 mM) was applied to the dorsal skin surface in an area of about 1 cm^2. In the medicine-treated group, a volume of 20 μL of a solution prepared by dissolving the test compound in acetone was applied to the same area 5 minutes, 24 hours and 48 hours after TPA application. In the non-treated group, only TPA was applied. In the control group, acetone was applied instead of the TPA-acetone solution.
The mice were sacrificed and the skin tissues were excised 72 hours after TPA application. Then the tissues were fixed with formalin, the vertical sections including the center of the TPA- or acetone-treated area were prepared and embedded in paraffin according to the conventional method. And they were stained by hematoxylin-eosin after removing paraffin. The epidermal thickness was measured using a microscope.
In FIG. 1, the numeral in the ordinate represents the epidermal thickness (μm). A bar graph of TPA (-) represents the epidermal thickness of the control group and a bar graph of TPA represents the epidermal thickness of the non-treated group. The respective bar graphs of 1, 10 and 100 denote the epidermal thickness of the group wherein the test compound is administered at a dose of 1, 10 and 100 (μg/wound) of each test compound. […]

Row | SMILES | hyperplasia inhibitory activity (epidermal thickness)
6 | O=C(NO)[C@H]1[C@@H](O)[C@H](O)[C@@H](O)CN1S(=O)(=O)c1ccc(Oc2ccccc2)cc1 [Compound c, (2R,3R,4R,5S)-3,4,5-trihydroxy-1-(4′-phenoxybenzenesulfonyl)-piperidine-2-carboxylic acid hydroxamide] | hyperplasia inhibitory activity
